Where two headings read alike, the source gives them in different places.

For one data set, the system named is plasma protein. As to conditions: cited from earlier work.
For a further data set, the system named is CYP450 enzymes. The settings on record: cited from earlier work.
For data set [1] the following is noted: cited from earlier work.
Data set [2] relates to CYP2D6. As to the kind of experiment: Saliva phenotyping with dextromethorphan probe (dextromethorphan/dextrorphan metabolic ratio). The data set is classed as in vivo, human. From the text:
3. […] Record the time in your lab notebook.
1. […] Repeat with the other three saliva samples.
4. […] Repeat with the other three saliva samples.

A further data set has as its system CYP2C19. The settings on record: in vivo.
Data set [3] concerns the target T1, CYP3A4 (Homo sapiens, UniProt P08684). The settings on record: parent and primary metabolite, CYP3A4 probe search.
The target in the next data set is T2, CYP1A2 (Homo sapiens, UniProt P05177).
T2 sequence (P05177 1-516): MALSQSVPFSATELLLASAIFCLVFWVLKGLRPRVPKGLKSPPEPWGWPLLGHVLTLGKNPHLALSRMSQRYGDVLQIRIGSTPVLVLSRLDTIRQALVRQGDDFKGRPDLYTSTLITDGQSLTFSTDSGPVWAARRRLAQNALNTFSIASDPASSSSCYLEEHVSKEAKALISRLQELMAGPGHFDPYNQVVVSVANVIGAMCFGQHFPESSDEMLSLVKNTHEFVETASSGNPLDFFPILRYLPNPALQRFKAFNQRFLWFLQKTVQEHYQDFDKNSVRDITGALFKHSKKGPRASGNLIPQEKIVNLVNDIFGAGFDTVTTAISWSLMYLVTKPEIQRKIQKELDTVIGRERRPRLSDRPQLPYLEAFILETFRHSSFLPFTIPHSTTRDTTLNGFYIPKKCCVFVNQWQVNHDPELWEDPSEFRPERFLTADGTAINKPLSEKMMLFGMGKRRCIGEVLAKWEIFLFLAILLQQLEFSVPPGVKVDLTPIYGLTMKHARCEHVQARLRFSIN
As to the kind of experiment: Saliva phenotyping with caffeine probe (caffeine/paraxanthine metabolic ratio). The data set is classed as in vivo.

The test system of data set [4] is CYP2D6. As to conditions: Hou et al., saliva, cited from earlier work.
For data set [5] the following is noted: cited from earlier work. This is another data set of the same source.
Data set [6] deals with T1, CYP3A4. Also on record: endogenous in cells; host or cells: healthy volunteers, in vivo; saliva sampled. The settings on record: eplerenone; cited from earlier work.
[7] abbreviates: Table of Exemplary Drugs, CYP3A4.
Where [8] appears, read: Table of Exemplary Drugs, CYP1A2.
Setting [9] is: saliva, healthy adults, dextromethorphan 30 mg.
Where [10] appears, read: Table of Exemplary Drugs, CYP2C9.
Setting [11] is: Table of Exemplary Drugs, CYP2C19.
Setting [12] is: Table of Exemplary Drugs, CYP2D6.

T1 sequence (P08684 whole entry): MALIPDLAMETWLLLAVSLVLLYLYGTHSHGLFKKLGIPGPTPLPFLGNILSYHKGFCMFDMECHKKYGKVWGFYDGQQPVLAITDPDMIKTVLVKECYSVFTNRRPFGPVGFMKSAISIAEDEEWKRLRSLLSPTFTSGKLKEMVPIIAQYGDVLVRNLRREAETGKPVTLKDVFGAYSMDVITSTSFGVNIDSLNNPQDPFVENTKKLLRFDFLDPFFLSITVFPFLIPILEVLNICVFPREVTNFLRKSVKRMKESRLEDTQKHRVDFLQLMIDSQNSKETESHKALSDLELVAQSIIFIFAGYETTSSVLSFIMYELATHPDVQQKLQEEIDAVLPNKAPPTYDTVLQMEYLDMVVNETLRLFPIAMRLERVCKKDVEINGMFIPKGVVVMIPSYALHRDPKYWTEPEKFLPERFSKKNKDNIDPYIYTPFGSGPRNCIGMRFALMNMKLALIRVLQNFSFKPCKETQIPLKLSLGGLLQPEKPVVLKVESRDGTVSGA

On to `CN(C)CCc1c[nH]c2ccc(CS(=O)(=O)N3CCCC3)cc12` [Almortriptan (Axert), Almortriptan], for which the “PLASMA PROTEIN BINDING” value with plasma protein (setting [7]) is 35%. Also, in the data set with CYP450 enzymes (CYP isoforms listed, Table of Exemplary Drugs, CYP3A4), the METABOLISM is 2D6, MAO. Besides, the “ORAL BIOAVAILABILITY” value in [1] (setting [7]) was 70%.

In the case of `CN1CC[C@@]23CCCC[C@@H]2[C@@H]1Cc1ccc(O)cc13` [Dextrorphan], the concentrations in saliva entry with CYP2D6 [2] (individuals dosed with over the counter formulations) is reported as “sometimes found in very low concentrations in saliva”.

For `COc1ccc2nc([S+]([O-])Cc3ncc(CO)c(OC)c3C)[nH]c2c1` (stereo not shown) [5-hydroxy omeprazole], the concentrations in saliva result with CYP2C19 was “found in low concentrations in saliva of some individuals”.

As for `COC(=O)[C@H]1[C@H]2[C@@H]3CC[C@@]4(CCC(=O)O4)[C@@]3(C)C[C@H]3O[C@@]23[C@@]2(C)CCC(=O)C=C2[C@@H]1O` [6Beta-Hydroxy Eplerenone], the concentrations in saliva result on CYP3A4 [3] is “sufficiently high concentrations in saliva”.

`Cn1c(=O)c2c(ncn2C)n(C)c1=O` [Caffeine]: the “PLASMA PROTEIN BINDING” value in the data set with plasma protein (setting [8]) was 17-36% ^. Moreover, the complaints of individuals result at CYP1A2 (caffeine doses of 200 mg, some individuals) is “nervousness and anxiety”. Further, at CYP1A2 (saliva, healthy primarily Caucasian adults, caffeine 200 mg), the “poor metabolizers, share of subjects (CYP1A2 phenotype)” value was 7.8%.

Take `COc1ccc2c(c1)[C@]13CCCC[C@@H]1[C@H](C2)N(C)CC3` [Dextromethophan]: the “antimode (MR) marking poor metabolizers” value in the data set with CYP2D6 [4] (healthy Chinese subjects, 3 hours after 50 mg immediate release) was 14. In addition, in the data set with CYP2D6 [4] (patients with renal disease, 3 hours after 30 mg immediate release), the “antimode (MR)” value is on record as 33. For the same molecule, the “HALF-LIFE” value in data set [5] (in vivo) is 1.4 to 3.9 h. Further, the “antimode (MR) marking poor metabolizers” value in the data set on CYP2D6 [2] (saliva, 6 hours after a 30 mg delayed release dose) was 27.5. In the data set on CYP2D6 [2] (setting [9]), the “CYP2D6 metabolic phenotype: Extensive” value was 83.9%, the “CYP2D6 metabolic phenotype: Intermediate” value was 9.2%, the “CYP2D6 metabolic phenotype: Poor” value amounted to 4.6% and the “CYP2D6 metabolic phenotype: Ultra-rapid” value amounted to 2.3%. Further, in data set [1] (in vivo, po), the “ORAL BIOAVAILABILITY” value is on record as 11%.

As to `CC(=O)O[C@H]1C(=O)[C@@]2(C)[C@H]([C@H](OC(=O)c3ccccc3)[C@]3(O)C[C@H](OC(=O)[C@H](O)[C@@H](NC(=O)c4ccccc4)c4ccccc4)C(C)=C1C3(C)C)[C@]1(OC(C)=O)CO[C@@H]1C[C@@H]2O` [Paclitaxel (Taxol), Paclitaxel], the “PLASMA PROTEIN BINDING” value in the data set on plasma protein (setting [7]) is 89-98% ^. For the same molecule, the “HALF-LIFE” value in data set [5] (setting [7]) is 13.1 to 52.7 h. The “ORAL BIOAVAILABILITY” value in [1] (setting [7]) is recorded as 6.50%.

Turning to `Fc1ccccc1C1=NCC(=S)N(CC(F)(F)F)c2ccc(Cl)cc21` [Quazepam (Doral), Quazepam], the “PLASMA PROTEIN BINDING” value in the data set on plasma protein (setting [7]) is on record as above 95%. For the same molecule, in data set [5] (setting [7]), the “HALF-LIFE” value was 25 to 41 h. Moreover, the “ORAL BIOAVAILABILITY” value in data set [1] (setting [7]) is listed as 29-35%.

As to `Cn1c(=O)c2[nH]cnc2n(C)c1=O` [Theophylline], the METABOLISM in the data set with CYP450 enzymes (CYP isoforms listed, Table of Exemplary Drugs, CYP1A2) is 2E1. Moreover, in data set [5] (setting [8]), the “HALF-LIFE” value is 1.5 to 9.8 h. Besides, in data set [1] (setting [8]), the “ORAL BIOAVAILABILITY” value is on record as around 100%.

Take `COC(=O)[C@@H]1CC2=CC(=O)CC[C@]2(C)[C@@]23O[C@@H]2C[C@@]2(C)[C@@H](CC[C@@]24CCC(=O)O4)[C@H]13` [Eplerenone (Inspra), Eplerenone]: the “PLASMA PROTEIN BINDING” value in the data set with plasma protein (setting [7]) is given as 50%. In addition, at CYP3A4 [6], the Tmax entry is “approximately 1.5 hours”. In data set [5] (setting [7]), the “HALF-LIFE” value is 3 to 6 h. In addition, the “ORAL BIOAVAILABILITY” value in data set [1] (setting [7]) was 69%.

Consider `CCC1=C(C)CN(C(=O)NCCc2ccc(S(=O)(=O)NC(=O)N[C@H]3CC[C@H](C)CC3)cc2)C1=O` [Glimepiride], for which the “PLASMA PROTEIN BINDING” value in the data set on plasma protein (setting [10]) was above 99%. Besides, in data set [5] (setting [10]), the “HALF-LIFE” value was 5 to 9.2 h. In data set [1] (setting [10]), the “ORAL BIOAVAILABILITY” value is 100%.

As to `COC(=O)C1=C(C)NC(C)=C(C(=O)OCCN(C)Cc2ccccc2)C1c1cccc([N+](=O)[O-])c1` (stereo not shown) [Nicardipine (Cardene), Nicardipine], the METABOLISM with CYP450 enzymes is on record as 3A4, 2C8, 2D6. In addition, the “HALF-LIFE” value in [5] (setting [7]) was 8.6 to 14.4 h. Moreover, the “ORAL BIOAVAILABILITY” value in [1] (setting [7]) was 35%.

Turning to `CC[C@H]1OC(=O)[C@H](C)[C@@H](O[C@H]2C[C@@](C)(OC)[C@@H](O)[C@H](C)O2)[C@H](C)[C@@H](O[C@@H]2O[C@H](C)C[C@H](N(C)C)[C@H]2O)[C@](C)(OC)C[C@@H](C)C(=O)[C@H](C)[C@@H](O)[C@]1(C)O` [Clarithromycin (Biaxin), Clarithromycin], the “PLASMA PROTEIN BINDING” value with plasma protein (setting [7]) is given as “Low”. Also, the “HALF-LIFE” value in [5] (setting [7]) was 4 h. Moreover, the “ORAL BIOAVAILABILITY” value in [1] (setting [7]) is 55%.

Regarding `CC(C)n1c(/C=C/C(O)CC(O)CC(=O)O)c(-c2ccc(F)cc2)c2ccccc21` (stereo not shown) [Fluvastatin], in the data set on plasma protein (setting [10]), the “PLASMA PROTEIN BINDING” value is on record as 98%. The “HALF-LIFE” value in data set [5] (setting [10]) was 2.5 h. In addition, the “ORAL BIOAVAILABILITY” value in [1] (setting [10]) is reported as 24%.

For `C[C@]12CC[C@H]3[C@@H](CCC4=CC(=O)CC[C@@]43C)[C@@H]1CC[C@@H]2O` [Testosterone], the “PLASMA PROTEIN BINDING” value with plasma protein (plasma) was 98%. Further, in data set [5] (in vivo), the “HALF-LIFE (hrs)” value was “varies”. Besides, in data set [1] (in vivo, po), the “ORAL BIOAVAILABILITY” value is listed as “Varies”.

With `CCCCCc1cc(O)c2c(c1)OC(C)(C)[C@@H]1CCC(C)=C[C@@H]21` [THC], the “PLASMA PROTEIN BINDING” value in the data set on plasma protein (setting [10]) was 97-99% ^. Also, the “HALF-LIFE” value in data set [5] (setting [10]) is 1.6 to 59 h. Further, the “ORAL BIOAVAILABILITY” value in [1] (setting [10]) is 10-35%.

`Cc1nnc2n1-c1ccc(Cl)cc1C(c1ccccc1)=NC2` [Alprazolam (Xanax), Alprazolam]: in the data set on plasma protein (setting [7]), the “PLASMA PROTEIN BINDING” value is 80%. Also, in data set [5] (setting [7]), the “HALF-LIFE” value was 11 h. In addition, the “ORAL BIOAVAILABILITY” value in data set [1] (setting [7]) was 90%.

In the case of `CCC[C@@]1(CCc2ccccc2)CC(O)=C([C@H](CC)c2cccc(NS(=O)(=O)c3ccc(C(F)(F)F)cn3)c2)C(=O)O1` [Tipranavir (Aptivus), Tipranavir], in the data set on plasma protein (setting [7]), the “PLASMA PROTEIN BINDING” value is given as 99.9%^. The “HALF-LIFE” value in [5] (setting [7]) was 5.5 to 6 h. For the same molecule, the “ORAL BIOAVAILABILITY” value in data set [1] (setting [7]) was 30?%.

For the molecule `CCOc1ccccc1OCCN[C@H](C)Cc1ccc(OC)c(S(N)(=O)=O)c1` [Tamsulosin (Flomax), Tamsulosin], the “PLASMA PROTEIN BINDING” value in the data set with plasma protein (setting [7]) is 94-99% ^. In addition, in data set [5] (setting [7]), the “HALF-LIFE” value was 9 to 15 h. In data set [1] (setting [7]), the “ORAL BIOAVAILABILITY” value is given as above 90%.

For the molecule `COCCCOc1ccnc(C[S+]([O-])c2nc3ccccc3[nH]2)c1C` (stereo not shown) [Rabeprazole], the METABOLISM in the data set on CYP450 enzymes (CYP isoforms listed, Table of Exemplary Drugs, CYP2C19) was 3A. The “HALF-LIFE” value in data set [5] (setting [11]) was 1 to 2 h. The “ORAL BIOAVAILABILITY” value in [1] (setting [11]) is 52%.

Regarding `OC(CNCC(O)C1CCc2cc(F)ccc2O1)C1CCc2cc(F)ccc2O1` (stereo not shown) [Nebivolol], the “PLASMA PROTEIN BINDING” value with plasma protein (setting [12]) was 98%. Moreover, the “HALF-LIFE” value in data set [5] (setting [12]) is 12 to 19 h. For the same molecule, the “ORAL BIOAVAILABILITY” value in data set [1] (setting [12]) was 12-96%.

`C=C1C[C@@H]2[C@H](CC[C@]3(C)C(=O)CC[C@@H]23)[C@@]2(C)C=CC(=O)C=C12` [Exemestane (Aromasin), Exemestane]: the “PLASMA PROTEIN BINDING” value in the data set on plasma protein (setting [7]) is given as 90%. Besides, the “HALF-LIFE” value in data set [5] (setting [7]) is 24 h. The “ORAL BIOAVAILABILITY” value in data set [1] (setting [7]) is 42%.

For the molecule `CCCN1CCCC[C@H]1C(=O)Nc1c(C)cccc1C` [Ropivacaine], the “PLASMA PROTEIN BINDING” value in the data set with plasma protein (setting [8]) is reported as 94%. Also, the “HALF-LIFE” value in [5] (setting [8]) was 5 to 7 h. Further, the “ORAL BIOAVAILABILITY” value in data set [1] (cell marked IV, Table of Exemplary Drugs, CYP1A2) is listed as 87-98% - IV.

For `CNCCC(Oc1ccc(C(F)(F)F)cc1)c1ccccc1` (stereo not shown) [Fluoxetine], the “PLASMA PROTEIN BINDING” value in the data set on plasma protein (setting [10]) and in the data set with plasma protein (setting [12]) was 94.5%^ throughout. Also, the HALF-LIFE in data set [5] (setting [10]) and in data set [5] (setting [12]) was 96 to 140 h in each case. Further, the “ORAL BIOAVAILABILITY” value in data set [1] (setting [10]) and in data set [1] (setting [12]) was 60-80% in each case.
